Assay type in all cases: in vivo, mouse
Assay [1] has as its system Aβ40. Kind of assay: Aβ40 levels in brain extracts of 5×FAD mice (ELISA). The following applies: brain extract; 1 mg/kg i.p. twice a week for two months, 2 to 4 months of age. The protocol:
(§1) Animal experiments were carried out in accordance with the Directive by the Council of the European Communities of Nov. 24, 1986 (86/609/EEC). All efforts were made to minimize animal suffering and to reduce the number of mice used. The generation of 5×FAD mice was described in Oakley et al. (2006) J. Neurosci. 26:10129-10140. These transgenic mice overexpress both human APP (695) harboring the Swedish (K670N, M671L), Florida (1716V) and London (V7171) familial AD (FAD) mutations and human Presenilin 1 (PS1) harboring the two FAD mutations M146L and L286V. Expression of both transgenes is regulated by neuronal-specific elements of the mouse Thy1 promoter. The 5×FAD strain (B6/SJL genetic background) was maintained by crossing hemizygous transgenic mice with B6/SJL F1 breeders. The 5×FAD strain (C57BL/6J genetic background) was maintained by crossing hemizygous transgenic mice with C57BL/6J F1 breeders. All animals were genotyped by PCR using tail genomic DNA. Transgenic and WT mice were bred in our animal facility, had access to food and water ad libitum and were housed under a 12 h light-dark cycle at 22-24° C. Female 5×FAD mice were used in this study. For each experiment, the age of mice is indicated in months (with a two-week range).
(§2) Compounds were resuspended in DMSO (37.5 μg/μl, stored at −20° C.) and freshly diluted 1:250 in 0.9% NaCl prior administration. Vehicle solution (0.9% NaCl, 0.4% DMSO) was used as control.
5×FAD mice received chronic treatments with drugs or vehicle according to 2 different protocols. In each experiment, drugs or vehicle solution were administered i.p. twice a week (1 mg/kg). In “Protocol 1”, mice (n=6-7 mice per group) were treated with compounds for two months, from 2 to 4 months of age. In “Protocol 2”, mice (n=7) were treated with compounds for three months, from 1 month to 4 months of age. At the end of each protocol, mice were anesthetized with a mixture of 100 mg/kg ketamine and 10 mg/kg xylazine in saline solution and perfused transcardially with PBS. Brains were quickly isolated on ice, the olfactory bulbs and cerebellum removed and the two hemispheres divided. […]
(§3) ELISA kits from IBL International (Hamburg, Germany) for the dosage of Aβ40 (human amyloid β (1-40) assay kit, #27713) or Aβ42 (human amyloid β (1-42) assay kit, #27719) were used according to the manufacturer's instructions. Reactions were read at 620 nm and 450 nm using an Infinite 2000 luminescence counter. The obtained values were normalized to the protein concentration of each sample, measured using a BCA protein assay (Sigma-Aldrich). […]
Aβ40 and Aβ42 were quantified from brain extract in soluble and insoluble fractions. […]

Assay [2] relates to Aβ42. The assay can be described thus: Aβ42 concentration in cerebrospinal fluid of 5×FAD mice. The conditions noted are these: 1 mg/kg twice a week for 3 months; compared to controls. The protocol:
5×FAD mice received chronic treatments with drugs or vehicle according to 2 different protocols. In each experiment, drugs or vehicle solution were administered i.p. twice a week (1 mg/kg). In “Protocol 1”, mice (n=6-7 mice per group) were treated with compounds for two months, from 2 to 4 months of age. In “Protocol 2”, mice (n=7) were treated with compounds for three months, from 1 month to 4 months of age. At the end of each protocol, mice were anesthetized with a mixture of 100 mg/kg ketamine and 10 mg/kg xylazine in saline solution and perfused transcardially with PBS. Brains were quickly isolated on ice, the olfactory bulbs and cerebellum removed and the two hemispheres divided. One hemisphere was frozen on dry ice and stored at −80° C. for biochemical analysis, while the other was post-fixed in 4% PFA for immunohistochemistry (IHC).
Mice were anesthetized and mounted onto a stereotaxic instrument. The neck skin was cut and subcutaneous tissue and muscles separated with the help of micro-retractors (Fine Science Tools, Heidelberg, Germany). Mice were then laid down so that the head formed an angle of about 135° with the body (Liu and Duff (2008) J. Vis. Exp. 10:960). A capillary tube (Borosilicate glass, B100-75-10, Sutter Instruments, Novato, Calif., USA) was used to punch the dura mater of the cisterna magna. CSF was collected by capillary action and transferred to 0.5 mL microtubes, immediately frozen on dry ice and stored at −80° C. until use. Once thawed, samples were heated at 60° C. for 5 min as described in the international application WO 2008/009868 and analyzed without further freezing-thawing cycles.
as §3

Assay [3] has as its system 5×FAD mice. Kind of assay: Novel object recognition test in 5×FAD mice. The conditions noted are these: 1 mg/kg twice a week for 3 months; 24 h inter-session interval. How it is done:
as §1, §2
5×FAD mice received chronic treatments with drugs or vehicle according to 2 different protocols. In each experiment, drugs or vehicle solution were administered i.p. twice a week (1 mg/kg). […]
The cognitive performance of mice was tested using the novel object recognition (NOR) test (Bevins and Besheer (2006) Nat. Protoc. 1:1306-1311). […] The whole experiment was video-recorded and object exploration [time spent by the mouse nose in contact with the object or by sniffing it at a distance s 1 cm] was blindly measured. […] A discrimination index was also calculated ([novel−familiar]/[familiar+novel]). […]

Molecules are shown by their SMILES.

For the molecule `COc1cc(N)c(F)cc1C(=O)CCC1CCN(CC2CCCCC2)CC1` [Flucopride], in assay [1], the “Aβ40, insoluble fraction (% of controls)” value is listed as 97.16 % of controls and the “Aβ40, soluble fraction (% of controls)” value is given as 110.51 % of controls. In assay [2], the “Aβ42 concentration in cerebrospinal fluid (CSF)” value is recorded as “not significantly different”. Further, the “recognition memory, exploration of novel vs familiar object (NOR)” value in assay [3] is given as “prevent memory alteration”.
The corresponding values for `COc1cc(N)c(Cl)cc1C(=O)CCC1CCN(CC2CCCCC2)CC1` [Donecopride] are 79.97 % of controls, 110.18 % of controls, “not significantly different” and “prevent memory alteration”.

For the origin of these results see patent US20220031680A1, “Donecopride As Neuroprotective Agent In the Treatment of Neurodegenerative Diseases” (priority 2018, published 2022).
